Test results from patent US5756120A, “Antibiotic formulation and use for drug resistant infections” (NeXstar Pharmaceuticals, Inc., priority 1995, dated 1998).
Several values for one entry are separate records, joined by “and”; a condition that tells them apart may be missing. Equal values may be shown once. Entries after “also recorded” stand apart in the source; their conditions may differ. Read-outs that look alike come from different tables or passages of the source.

Tested on: M. tuberculosis drug resistant strain Vertulla
Format: cell-based
Conditions: for CFU (1 × 10^3): duplicate values; for inhibition or killing of drug resistant M. tuberculosis: concentrations tested (4, 8 and 16 μg/ml)

NCC[C@H](O)C(=O)N[C@@H]1C[C@H](N)[C@@H](O[C@H]2O[C@H](CN)[C@@H](O)[C@H](O)[C@H]2O)[C@H](O)[C@H]1O[C@H]1O[C@H](CO)[C@@H](O)[C@H](N)[C@H]1O [amikacin]
Avg. log CFU (4 μg/ml, day 4): 3.9 log CFU | CFU (1 × 10^3) (4 μg/ml, day 4): 9.3 1 × 10^3 CFU and 8.0 1 × 10^3 CFU | Avg. log CFU (4 μg/ml, day 7): 5.2 log CFU | Avg. log CFU (8 μg/ml, day 4): 3.7 log CFU | CFU (1 × 10^3) (8 μg/ml, day 4): 5 1 × 10^3 CFU and 4 1 × 10^3 CFU | Avg. log CFU (8 μg/ml, day 7): 3.7 log CFU | CFU (1 × 10^3) (8 μg/ml, day 7): 4.5 1 × 10^3 CFU and 6.2 1 × 10^3 CFU | Avg. log CFU (16 μg/ml, day 4): 3.7 log CFU | CFU (1 × 10^3) (16 μg/ml, day 4): 5 1 × 10^3 CFU and 5.4 1 × 10^3 CFU | Avg. log CFU (16 μg/ml, day 7): 3.6 log CFU | CFU (1 × 10^3) (16 μg/ml, day 7): 3.7 1 × 10^3 CFU and 4.1 1 × 10^3 CFU | inhibition or killing of drug resistant M. tuberculosis (listed as free amikacin): at the most, inhibition; also recorded: only inhibit the growth of the infection without killing at the concentrations tested | inhibition or killing of drug resistant M. tuberculosis (listed as free drug): only inhibits the growth of the bacteria
